The series can be described thus: in vivo. The conditions noted are these: mouse, po.

Structures are written as SMILES.

A word on the NOAEL: it is the highest tested level that showed no adverse finding.

`Cc1c(-c2ccc(O)cc2)n(Cc2ccc(OCCN3CCCCC3)cc2)c2ccc(O)cc12` [Pipendoxifene, 2-(4-hydroxyphenyl)-3-methyl-1-[[4-(2-piperidin-1-ylethoxy)phenyl]methyl]indol-5-ol] yielded an NOAEL of no less than 750 mg/kg/day.

The record behind these values is EP4799624A2 (priority 2021, dated 2023).
